Measured values published in ChEMBL document CHEMBL4330153, “In Vivo Anti-inflammatory and Antiallergic Activity of Pure Naringenin, Naringenin Chalcone, and Quercetin in Mice” (2019).
Activity calls are given as the source filed them. No cut-off for these calls is given here.

Columns and labels:
Mus musculus [1] = assay: Antiallergic activity in CD-1 mouse model of IgE/DNP-BSA-stimulated passive cutaneous anaphylaxis assessed as inhibition of vascular permeability at 5% administered topically immediately after sensitization by Evans blue extravasation assay; type: functional, organism-based
Mus musculus [2] = assay: Antiallergic activity in CD-1 mouse model of IgE/DNP-BSA-stimulated passive cutaneous anaphylaxis assessed as inhibition of vascular permeability at 0.1% administered topically immediately after sensitization by Evans blue extravasation assay; type: functional, organism-based
Mus musculus [3] = assay: Antiallergic activity in CD-1 mouse model of IgE/DNP-BSA-stimulated passive cutaneous anaphylaxis assessed as inhibition of vascular permeability at 1% administered topically immediately after sensitization by Evans blue extravasation assay relative to control; type: functional, organism-based
Mus musculus [4] = assay: (§1) Anti-inflammatory activity in arachidonic acid-induced CD-1 mouse ear edema model assessed as inhibition of ear edema thickness at 1% administered topically immediately after arachidonic acid treatment and measured 1 hr post arachidonic acid treatment relative to control; type: functional
Mus musculus [5] = assay: as §1, with “tetradecanoylphorbol-13-acetate-induced” for “arachidonic acid-induced”, “tetradecanoylphorbol-13-acetate” for “arachidonic acid”, “4 hrs” for “1 hr”; type: functional
Mus musculus [6] = assay: Antiallergic activity in CD-1 mouse model of IgE/DNP-BSA-stimulated passive cutaneous anaphylaxis assessed as inhibition of vascular permeability at 2% administered topically immediately after sensitization by Evans blue extravasation assay relative to control; type: functional
Mus musculus [7] = assay: Antiallergic activity in CD-1 mouse model of IgE/DNP-BSA-stimulated passive cutaneous anaphylaxis assessed as inhibition of vascular permeability at 4% administered topically as oil-in-water emulsion immediately after sensitization by Evans blue extravasation assay relative to control; type: functional, organism-based
Mus musculus [8] = assay: Antiallergic activity in CD-1 mouse model of IgE/DNP-BSA-stimulated passive cutaneous anaphylaxis assessed as inhibition of vascular permeability at 0.2%, iv administered immediately after sensitization by Evans blue extravasation assay; type: functional, organism-based
Mus musculus [9] = assay: Anti-inflammatory activity in arachidonic acid-induced CD-1 mouse ear edema model assessed as inhibition of ear edema thickness at 2% administered topically immediately after arachidonic acid treatment and measured 1 hr post arachidonic acid treatment relative to control; type: functional
Mus musculus [10] = assay: Antiallergic activity in CD-1 mouse model of IgE/DNP-BSA-stimulated passive cutaneous anaphylaxis assessed as inhibition of vascular permeability at 0.02%, iv administered immediately after sensitization by Evans blue extravasation assay relative to control; type: functional
Mus musculus [11] = assay: Antiallergic activity in mouse model of picryl-chloride-induced […] allergy at 0.8 mg/kg, po for 5 days relative to control; type: functional
Mus musculus [12] = assay: Anti-inflammatory activity in tetradecanoylphorbol-13-acetate-induced CD-1 mouse ear edema model assessed as inhibition of ear edema thickness administered topically immediately after tetradecanoylphorbol-13-acetate treatment and measured 4 hrs post tetradecanoylphorbol-13-acetate treatment; type: functional, organism-based
Mus musculus [13] = assay: Antiallergic activity in mouse model of IgE/DNP-BSA-stimulated passive cutaneous anaphylaxis at 5 mg/kg, ip administered as single dose relative to control; type: functional
Mus musculus [14] = assay: Anti-inflammatory activity in arachidonic acid-induced CD-1 mouse ear edema model assessed as inhibition of ear edema thickness administered topically immediately after arachidonic acid treatment and measured 1 hr post arachidonic acid treatment; type: functional, organism-based
Mus musculus [15] = assay: (§2) Anti-inflammatory activity in tetradecanoylphorbol-13-acetate-induced CD-1 mouse ear edema model assessed as inhibition of ear edema thickness at 2% administered topically immediately after tetradecanoylphorbol-13-acetate treatment and measured 4 hrs post tetradecanoylphorbol-13-acetate treatment relative to control; type: functional
Mus musculus [16] = assay: as §2, with “0.5%” for “2%”; type: functional
Mus musculus [17] = assay: Anti-inflammatory activity in arachidonic acid-induced CD-1 mouse ear edema model assessed as inhibition of ear edema thickness at 1.3% administered topically immediately after arachidonic acid treatment and measured 1 hr post arachidonic acid treatment; type: functional, organism-based
Mus musculus [18] = assay: Anti-inflammatory activity in tetradecanoylphorbol-13-acetate-induced CD-1 mouse ear edema model assessed as inhibition of ear edema thickness at 1.3% administered topically immediately after tetradecanoylphorbol-13-acetate treatment and measured 4 hrs post tetradecanoylphorbol-13-acetate treatment; type: functional, organism-based

Question: `CC(c1cc2ccccc2s1)N(O)C(N)=O` (centres undefined) was tested. Which inhibition (Mus musculus [1]) did it give?
Answer: Active

Question: How did the inhibition (Mus musculus [2]) turn out when `CCC(=O)O[C@]1(C(=O)COC(C)=O)CC[C@H]2[C@@H]3C[C@H](C)C4=CC(=O)C=C[C@]4(C)[C@H]3[C@@H](O)C[C@@]21C` was run?
Answer: Active

Question: For `CN(C)CCC(c1ccc(Cl)cc1)c1ccccn1` (centres undefined), which inhibition (Mus musculus [3]) is on record?
Answer: Active

Question: `O=C(O)Cc1ccccc1Nc1c(Cl)cccc1Cl` was tested. Which inhibition (Mus musculus [4]) did it give?
Answer: Active

Question: And the inhibition (Mus musculus [5])?
Answer: Active

Question: With `O=C(O)c1cc(=O)c2c(OCC(O)COc3cccc4oc(C(=O)O)cc(=O)c34)cccc2o1` as the molecule, how does the inhibition (Mus musculus [6]) read?
Answer: inactive

Question: And the inhibition (Mus musculus [7])?
Answer: inactive

Question: And the inhibition (Mus musculus [8])?
Answer: Active

Question: `O=C(/C=C/c1ccc(O)cc1)c1c(O)cc(O)cc1O` [4,2',4',6'-TETRAHYDROXYCHALCONE] was tested. Which “inhibition (INH)” value (Mus musculus [9]) did it give?
Answer: 42%

Question: What about the “inhibition (INH)” value (Mus musculus [10]) of the same molecule?
Answer: 68%

Question: And the “inhibition (INH)” value (Mus musculus [6])?
Answer: 55%

Question: And the Activity (Mus musculus [11])?
Answer: 47%

Question: What about the “inhibition (INH)” value (Mus musculus [5]) of the same molecule?
Answer: 27%

Question: With `O=C1C[C@@H](c2ccc(O)cc2)Oc2cc(O)cc(O)c21` [NARINGENIN] as the molecule, how does the inhibition (Mus musculus [12]) read?
Answer: Dose-dependent effect

Question: What about the “inhibition (INH)” value (Mus musculus [9]) of the same molecule?
Answer: 56%

Question: And the “inhibition (INH)” value (Mus musculus [10])?
Answer: 56%

Question: And the “inhibition (INH)” value (Mus musculus [6])?
Answer: 42%

Question: And the Activity (Mus musculus [11])?
Answer: 15%

Question: And the “inhibition (INH)” value (Mus musculus [4])?
Answer: 22%

Question: What about the Activity (Mus musculus [13]) of the same molecule?
Answer: 70%

Question: What about the inhibition (Mus musculus [14]) of the same molecule?
Answer: Dose-dependent effect

Question: What about the “inhibition (INH)” value (Mus musculus [5]) of the same molecule?
Answer: 56%

Question: And the “inhibition (INH)” value (Mus musculus [15])?
Answer: 62%

Question: And the “inhibition (INH)” value (Mus musculus [16])?
Answer: 32%

Question: `O=c1c(O)c(-c2ccc(O)c(O)c2)oc2cc(O)cc(O)c12` [QUERCETIN] was tested. Which inhibition (Mus musculus [17]) did it give?
Answer: inactive

Question: What about the “inhibition (INH)” value (Mus musculus [10]) of the same molecule?
Answer: 80%

Question: And the “inhibition (INH)” value (Mus musculus [6])?
Answer: 34%

Question: And the Activity (Mus musculus [11])?
Answer: 15%

Question: What about the inhibition (Mus musculus [18]) of the same molecule?
Answer: Active
